In patent publication US8921563B2, “1-[(4-hydroxypiperidin-4-yl)methyl]pyridin-2(1H)-one derivatives, preparation methods and uses thereof” (Institue of Pharmacology and Toxicology Academy of Military …, priority 2010, dated 2014):

How the values were obtained:
5-HT1A receptor = molecular target: T1, 5-HT1A receptor (Rattus norvegicus, UniProt P19327); experiment: Screening: competitive binding test to 5-HT1A receptor using [3H]-8-OH-DPAT, rat hippocampi membrane protein; details: [3H]-8-OH-DPAT 1.28 nM; for inhibition at 10 µM / inhibition at 0.1 µM: read-out: Inhibition percent (I %), competitive binding to 5-HT1A receptor
T1 construct: the content of 5-HT1A receptor extracted from rat hippocampi was 5.5 mg/ml; from tissue; host or cells: Wistar rat hippocampus, membrane preparation
T1 sequence (P19327 1-422): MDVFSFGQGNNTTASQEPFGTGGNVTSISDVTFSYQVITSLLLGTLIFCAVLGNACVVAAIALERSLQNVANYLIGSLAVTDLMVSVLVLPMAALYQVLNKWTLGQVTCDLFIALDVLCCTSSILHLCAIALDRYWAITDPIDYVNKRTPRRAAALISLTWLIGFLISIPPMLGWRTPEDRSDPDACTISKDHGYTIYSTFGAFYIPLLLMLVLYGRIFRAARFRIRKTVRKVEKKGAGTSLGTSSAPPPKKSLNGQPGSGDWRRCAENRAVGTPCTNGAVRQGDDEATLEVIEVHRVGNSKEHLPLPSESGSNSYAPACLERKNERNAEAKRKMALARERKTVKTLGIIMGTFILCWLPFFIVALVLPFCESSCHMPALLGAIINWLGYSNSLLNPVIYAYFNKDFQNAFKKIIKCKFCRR
Description: 1.4.1 Screening of YL Series Compounds
(1) Preparation of Membrane Proteins in Rat Hippocampi
Wister rats, 220-260 g, female and male, were sacrificed by decapitation and hippocampis were rapidly separated, weighed and to which homogenized in 10 times volume of Tris-HCl buffer solution (50 mM Tris-HCl, 5 mM MgCl2,1 mM EDTA, 0.5% (WN) BSA, 1 mM PMSF, 3 μg/ml proteinase inhibitor, 0.1% NaN3, 0.32M sucrose, pH 7.4) at 15,000 rpm for 30 s, total 5 times. The homogenate was centrifuged under 1000×g for 10 minutes and the supernatant was then centrifuged under 39000×g for 10 minutes. The precipitate was collected, and resuspended with 10 times volume of Tris-HCl buffer solution (pH 7.4) relative to the original weight, then centrifuged under 39000×g for 10 minutes. The precipitate was washed with the same buffer solution, centrifuged under 39000×g for 10 minutes and the precipitate was suspended with the above buffer solution. After sub-packaged (the whole operation procedures were performed under ice bath), the product was stored at −80° C. The protein concentration was measured by Lowrry method.
1) In the 5-HT1A receptor binding test, tubes are firstly placed under reaction condition of 25° C.
2) To all of the tubes, the receptor proteins extracted from rat hippocampi in an amount of 100 μg were added in sequence.
4) To the test tubes, 30 μl of the compound in corresponding concentrations (used for screening: 10^−5, 10^−7, 10^−9M) was added in sequence.
6) Tris-HCl buffer solution (50 mM Tris-HCl, 1 mM EDTA, 5 mM MgCl2, 0.1 mM PMSF, 0.1% NaN3, pH 7.4) was supplied to all of the tubes to reach a volume of 300 μl.
7) The reaction was performed at 25° C. for 1 h.
8) Then samples were applied to 49-type glass fibre filter, vacuum suction filtered, then washed three times with 2 ml ice-cold Tris-HCl buffer solution (50 mM Tris-HCl buffer solution, 1 mM EDTA, 5 mM MgCl2, 1 mM PMSF, 0.1% NaN3, 3 μg/ml proteinase inhibitor, pH 7.4). […] The radio-activity was measured by a scintillation counter.

[1] = molecular target: T2, 5-HT transport protein (SERT) (Rattus norvegicus, UniProt P31652); experiment: Screening: competitive binding test to SERT using [3H]-citalopram; details: [3H]-citalopram 1 nM; for inhibition at 10 µM / inhibition at 0.1 µM: read-out: Inhibition percent (I %), competitive binding to 5-HT transport protein (SERT)
T2 construct: Preparation of Membrane Proteins in Rat Hippocampi; from tissue; host or cells: Wistar rat hippocampus
T2 sequence (P31652 whole entry): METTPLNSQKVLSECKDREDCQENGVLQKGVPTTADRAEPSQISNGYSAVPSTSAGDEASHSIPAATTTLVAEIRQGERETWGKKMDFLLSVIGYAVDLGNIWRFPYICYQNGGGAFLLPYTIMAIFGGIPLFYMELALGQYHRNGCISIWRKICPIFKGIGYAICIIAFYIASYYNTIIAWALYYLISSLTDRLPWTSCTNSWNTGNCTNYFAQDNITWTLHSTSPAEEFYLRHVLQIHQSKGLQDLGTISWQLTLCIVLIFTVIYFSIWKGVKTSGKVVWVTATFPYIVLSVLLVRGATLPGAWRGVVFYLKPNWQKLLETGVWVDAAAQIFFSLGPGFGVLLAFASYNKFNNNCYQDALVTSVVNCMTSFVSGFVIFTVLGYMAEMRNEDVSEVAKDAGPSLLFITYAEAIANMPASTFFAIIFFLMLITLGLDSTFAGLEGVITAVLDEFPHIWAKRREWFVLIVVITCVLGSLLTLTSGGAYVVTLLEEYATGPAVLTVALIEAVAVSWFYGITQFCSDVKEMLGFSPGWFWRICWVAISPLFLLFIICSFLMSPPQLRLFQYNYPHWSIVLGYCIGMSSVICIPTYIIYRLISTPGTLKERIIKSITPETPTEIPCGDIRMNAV
Description: The homogenate was centrifuged under 1000×g for 10 minutes and the supernatant was then centrifuged under 39000×g for 10 minutes. The precipitate was collected, and resuspended with 10 times volume of Tris-HCl buffer solution (pH 7.4) relative to the original weight, then centrifuged under 39000×g for 10 minutes. The precipitate was washed with the same buffer solution, centrifuged under 39000×g for 10 minutes and the precipitate was suspended with the above buffer solution. After sub-packaged (the whole operation procedures were performed under ice bath), the product was stored at −80° C. The protein concentration was measured by Lowrry method.

mice [2] = experiment: Tail suspension test in mice; format: in vivo; details: 30 mg/kg p.o., acute, 1 h before test
From the text: 2.1.2 Tail Suspension Test in Mice
Tail suspension test in mice is an acute behavioral despair model established by Stem, et al. (1985).
1) Experimental device: an experimental frame with spacing boards which dividing the experimental frame into 2 experimental chambers (20×25×30 cm). A clamp is mounted on a through cross rod in the chamber for clamping mice tail so as to suspend the mice.
2) Experimental method: Male Kunming mice weighing 20-25 g. The mice were intragastrically administered with YL-0911 or vehicle (distilled water). After 1 h, wrap adhesive tape around the mouse's tail in position three quarters of the distance from the base of the tail and then suspend the animals by passing the suspension hook through the adhesive tape 5 cm above the table. The duration of immobility in the last 4 min of total 6 min test was recorded.

mice [3] = experiment: Hole board test in mice; format: in vivo; details: 10 mg/kg p.o., long-term (23 days)
Description: Hole board test, an animal model of anxiety established by Boissie, et al (1962), was performed in mice.
1) Experimental device: a transparent Perspex box (40×40×27 cm) which had four holes (3 cm in diameter, 1.8 cm in depth) in the floor. The distance of each hole center to its closest wall is 10 cm.
2) Experimental method: Male Kunming mice weighing 20-25 g. The mice were intragastrically administered with YL-0911 or vehicle (distilled water). After 23 days, the mice were placed at center of the hole board with their backs facing to the observer. A head dip was scored if the animal's head dipped into the hole at least up to eye level The latency to the first head-dip, the number of head-dips and the time spent in head-dipping were recorded for 5 min.

mice [4] = experiment: Forced swim test in mice; format: in vivo; details: 40 mg/kg p.o., acute, 1 h before test
Description: 2.1.1 Forced Swim Test in Mice
Forced swim test in mice is an acute behavioral despair model established by Porsolt, et al.
(1) Experimental device: a glass cylinder (diameter 13 cm, height 24 cm, containing 10 cm of water maintained at 25).
(2) Experimental method: Male Kunming mice weighing 20-25 g. The mice were gently put in the water 1 h after intragastrically drug administration, and then the duration of immobility in the last 4 min of total 6 min test was recorded.

| inhibition at 10 µM (5-HT1A receptor; compound 10^-5 mol/L) [%] | inhibition at 0.1 µM (5-HT1A receptor; compound 10^-7 mol/L) [%] | Inhibition percent (I %), competitive binding to 5-HT1A receptor (5-HT1A receptor; compound 10^-5 mol/L) [%] | Inhibition percent (I %), competitive binding to 5-HT1A receptor (5-HT1A receptor; compound 10^-7 mol/L) [%] | SMILES | other results |
| --- | --- | --- | --- | --- | --- |
| 94 | 62 | – | – | O=c1ccc(Br)cn1CC1(O)CCN(Cc2ccccc2)CC1 [Compound 5, 5-bromo-1-[(1-benzyl-4-hydroxypiperidin-4-yl)-methyl]-pyridin-2(1H)-one] | inhibition at 10 µM ([1]; compound 10^-5 mol/L): 100%; inhibition at 0.1 µM ([1]; compound 10^-7 mol/L): 77% |
| – | – | 76 | 37 | Cc1ccn(CC2(O)CCN(Cc3ccccc3F)CC2)c(=O)c1 [Compound 10, 1-{[1-(2-fluorobenzyl)-4-hydroxypiperidin-4-yl]-methyl}-4-methylpyridin-2(M)-one] | – |
| – | – | 59 | 2 | O=c1ccc(Br)cn1CC1(O)CCN(Cc2ccc(F)cc2)CC1 [Compound 7, 5-bromo-1-{[1-(4-fluorobenzyl)-4-hydroxypiperidin-4-yl]-methyl}-pyridin-2(M)-one] | – |
| – | – | 42 | 19 | O=c1ccc(Br)cn1CC1(O)CCN(Cc2ccc(F)cc2F)CC1 [Compound 8, 5-bromo-1-{[1-(2,4-fluorobenzyl)-4-hydroxypiperidin-4-yl]-methyl}-pyridin-2(M)-one] | – |
| – | – | 61 | 30 | Cc1ccn(CC2(O)CCN(Cc3ccc(F)cc3F)CC2)c(=O)c1 [Compound 12, 1-{[1-(2,4-difluorobenzyl)-4-hydroxypiperidin-4-yl]-methyl}-4-methylpyridin-2(M)-one] | – |
| – | – | 57 | 14 | Cc1ccn(CC2(O)CCN(Cc3ccc(F)cc3)CC2)c(=O)c1 [Compound 11, 1-{[1-(4-fluorobenzyl)-4-hydroxypiperidin-4-yl]-methyl}-4-methylpyridin-2(M)-one] | – |
| 100 | 74 | – | – | O=c1ccc(Br)cn1CC1(O)CCN(Cc2ccccc2F)CC1 [Compound 6, 5-bromo-1-{[1-(2-fluorobenzyl)-4-hydroxypiperidin-4-yl]-methyl}-pyridin-2(1H)-one] | inhibition at 10 µM ([1]; compound 10^-5 mol/L): 87%; inhibition at 0.1 µM ([1]; compound 10^-7 mol/L): 44% |
| – | – | – | – | CNCCC(Oc1ccc(C(F)(F)F)cc1)c1ccccc1 (centres unmarked) [Fluoxetine, fluoxetine, reference compound] | Immobility time (s), tail suspension test (mice [2]): 56.2 ± 41.7 s; the latency to the first head-dip (mice [3]): 42.70 ± 9.43 s; Number of Head dips (mice [3]; 5 min): 9.60 ± 1.49; Time of head dipping (mice [3]; 5 min): 6.31 ± 1.03 s |
| – | – | 100 | 25 | Cc1ccn(CC2(O)CCN(Cc3ccccc3)CC2)c(=O)c1 [Compound 9, 1-[(1-benzyl-4-hydroxypiperidin-4-yl)-methyl]-4-methylpyridin-2(M)-one] | – |
| 100 | 10 | – | – | O=c1ccccn1CC1(O)CCN(Cc2ccc(F)cc2)CC1 [Compound 3, 1-{[1-(4-fluorobenzyl)-4-hydroxypiperidin-4-yl]-methyl}-pyridin-2(1H)-one] | – |
| 100 | 58 | – | – | O=c1ccccn1CC1(O)CCN(Cc2ccccc2F)CC1 [Compound 2, 1-{[1-(2-fluorobenzyl)-4-hydroxypiperidin-4-yl]-methyl}-pyridin-2(1H)-one] | inhibition at 10 µM ([1]; compound 10^-5 mol/L): 100%; inhibition at 0.1 µM ([1]; compound 10^-7 mol/L): 50% |
| – | – | 100 | 57 | O=c1ccccn1CC1(O)CCN(Cc2ccc(F)cc2F)CC1 [Compound 4, 1-{[1-(2,4-difluorobenzyl)-4-hydroxypiperidin-4-yl]-methyl}-pyridin-2(1H)-p-one] | Inhibition percent (I %), competitive binding to 5-HT transport protein (SERT) ([1]; compound 10^-5 mol/L): 100%; Inhibition percent (I %), competitive binding to 5-HT transport protein (SERT) ([1]; compound 10^-7 mol/L): 58% |
| – | – | – | – | CN(C)CCCN1c2ccccc2CCc2ccccc21 [Imipramine, reference compound] | Immobility time (s), forced swim test (mice [4]): 88.0 ± 58.2 s |
